From patent publication US20250296959A1, “B7-H3 TARGETING PEPTIDES AND CONSTRUCTS THEREOF” (Mariana Oncology Inc., priority 2024, published 2025)
pKd: −log10 of the molar value. Starred links: 1 amine or outer side, 2 acyl side, 3 side chain; linkers in the order of their positions; H or OH if unused. Positions of bridges follow the written chain, without caps; N, C: chain ends. Non-standard residues stand in square brackets, D forms with d. Residues, ends and D or L forms follow the SMILES beside them. *: point of attachment. Phe(3-CH2NH2) = O=C([C@H](Cc1cccc(CN[*:3])c1)N[*:1])[*:2]; DOTA = O=C(O)CN1CCN(CC(=O)O)CCN(CC(=O)*)CCN(CC(=O)O)CC1; Trp(5-F) = N[C@@H](Cc1c[nH]c2ccc(F)cc12)C(=O)O; Phe(3-F) = N[C@@H](Cc1cccc(F)c1)C(=O)O; Phe(4-F) = N[C@@H](Cc1ccc(F)cc1)C(=O)O; 1Nal = N[C@@H](Cc1cccc2ccccc12)C(=O)O; hTyr = N[C@@H](CCc1ccc(O)cc1)C(=O)O; tBuAla = CC(C)(C)C[C@H](N)C(=O)O; αMeF = C[C@](N)(Cc1ccccc1)C(=O)O; 3Pal = N[C@@H](Cc1cccnc1)C(=O)O; aThr = C[C@H](O)[C@H](N)C(=O)O; Chg = N[C@H](C(=O)O)C1CCCCC1; NMeNle = CCCC[C@H](NC)C(=O)O; Tle = CC(C)(C)[C@H](N)C(=O)O; hLeu = CC(C)CC[C@H](N)C(=O)O

target: T1, human 4lg B7-H3 (Homo sapiens, UniProt Q5ZPR3); test: Affinity determination by surface plasmon resonance (SPR) to 4Ig B7-H3; details: SPR KD—25° C., 4Ig B7-H3; 25° C. flow cell temperature
T1 sequence (Q5ZPR3 29-534): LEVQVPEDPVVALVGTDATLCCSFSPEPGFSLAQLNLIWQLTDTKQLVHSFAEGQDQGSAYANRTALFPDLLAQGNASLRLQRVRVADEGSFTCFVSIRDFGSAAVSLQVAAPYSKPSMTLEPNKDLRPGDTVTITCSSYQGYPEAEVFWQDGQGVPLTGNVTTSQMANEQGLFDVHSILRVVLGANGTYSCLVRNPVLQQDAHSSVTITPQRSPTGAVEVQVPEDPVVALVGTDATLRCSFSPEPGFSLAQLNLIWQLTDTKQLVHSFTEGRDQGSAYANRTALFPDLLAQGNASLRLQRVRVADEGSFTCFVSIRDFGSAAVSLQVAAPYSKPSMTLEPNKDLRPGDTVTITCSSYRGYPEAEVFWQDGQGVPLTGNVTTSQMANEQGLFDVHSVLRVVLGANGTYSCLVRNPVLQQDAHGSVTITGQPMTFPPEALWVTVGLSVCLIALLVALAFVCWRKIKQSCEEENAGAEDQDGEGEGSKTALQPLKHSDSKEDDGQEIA

Row | Structure (SMILES) | pKd
1 | CC(=O)N[C@@H](CCC(C)C)C(=O)N[C@@H](Cc1ccc(O)cc1)C(=O)N[C@H]1CSSC[C@@H](C(=O)N[C@@H](Cc2c[nH]c3ccc(F)cc23)C(=O)N[C@@H](Cc2ccccc2)C(=O)N[C@H](C(=O)N[C@H](CCCCNC(=O)CN2CCN(CC(=O)O)CCN(CC(=O)O)CCN(CC(=O)O)CC2)C(N)=O)[C@@H](C)O)NC(=O)[C@H](Cc2ccc(O)cc2)NC(=O)[C@H](C(C)C)NC(=O)[C@H](CC(=O)O)NC(=O)[C@H](CCc2ccc(O)cc2)NC(=O)[C@H](CCCCN)NC(=O)CNC(=O)[C@H](C(C)C)NC1=O [compound 167, Ac-hLeu-Y-C-V-G-K-hTyr-D-V-Y-C-5FW-F-Thr-dLys(DOTA)-CONH2] (Ac-[hLeu]YCVGK[hTyr]DVYC[Trp(5-F)]FT[dK](DOTA)-NH2; disulfide 3-11) | 8.00 to 9.00
2 | CC(=O)N[C@@H](CCC(C)C)C(=O)N[C@@H](Cc1ccc(O)cc1)C(=O)N[C@H]1CSSC[C@@H](C(=O)N[C@@H](Cc2c[nH]c3ccc(F)cc23)C(=O)N[C@@](C)(Cc2ccccc2)C(=O)N[C@H](C(=O)N[C@H](CCCCNC(=O)CN2CCN(CC(=O)O)CCN(CC(=O)O)CCN(CC(=O)O)CC2)C(N)=O)[C@@H](C)O)NC(=O)[C@H](Cc2ccc(O)cc2)NC(=O)[C@H](C(C)C)NC(=O)[C@H](CC(=O)O)NC(=O)[C@H](Cc2ccc(O)cc2)NC(=O)[C@H](CCCCN)NC(=O)CNC(=O)[C@H](C(C)C)NC1=O [compound 168, Ac-hLeu-Y-C-V-G-K-Y-D-V-Y-C-5FW-aMePhe-Thr-dLys(DOTA)-CONH2] (Ac-[hLeu]YCVGKYDVYC[Trp(5-F)][αMeF]T[dK](DOTA)-NH2; disulfide 3-11) | 6.52 to 7.00
3 | CC(=O)N[C@@H](CCC(C)C)C(=O)N[C@@H](Cc1ccc(O)cc1)C(=O)N[C@H]1CSSC[C@@H](C(=O)N[C@@H](Cc2c[nH]c3ccc(F)cc23)C(=O)N[C@@H](Cc2ccccc2)C(=O)N[C@H](C(=O)N[C@H](CCCCNC(=O)CN2CCN(CC(=O)O)CCN(CC(=O)O)CCN(CC(=O)O)CC2)C(N)=O)[C@@H](C)O)NC(=O)[C@H](Cc2cccnc2)NC(=O)[C@H](C(C)C)NC(=O)[C@H](CC(=O)O)NC(=O)[C@H](Cc2ccc(O)cc2)NC(=O)[C@H](CCCCN)NC(=O)CNC(=O)[C@H](C(C)C)NC1=O [compound 170, Ac-hLeu-Y-C-V-G-K-Y-D-V-3PyA-C-5FW-F-Thr-dLys(DOTA)-CONH2] (Ac-[hLeu]YCVGKYDV[3Pal]C[Trp(5-F)]FT[dK](DOTA)-NH2; disulfide 3-11) | 8.00 to 9.00
4 | COc1ccc(C[C@@H]2NC(=O)[C@H](C(C)C)NC(=O)[C@H](CC(=O)O)NC(=O)[C@H](Cc3ccc(O)cc3)NC(=O)[C@H](CCCCN)NC(=O)CNC(=O)[C@H](C(C)C)NC(=O)[C@@H](NC(=O)[C@H](Cc3ccc(O)cc3)NC(=O)[C@H](CCC(C)C)NC(C)=O)CSSC[C@@H](C(=O)N[C@@H](Cc3c[nH]c4ccc(F)cc34)C(=O)N[C@@H](Cc3ccccc3)C(=O)N[C@H](C(=O)N[C@H](CCCCNC(=O)CN3CCN(CC(=O)O)CCN(CC(=O)O)CCN(CC(=O)O)CC3)C(N)=O)[C@@H](C)O)NC2=O)cc1 [compound 171, Ac-hLeu-Y-C-V-G-K-Y-D-V-OMeTyr-C-5FW-F-Thr-dLys(DOTA)-CONH2] (Ac-[hLeu]YCVGKYDVY(Me)C[Trp(5-F)]FT[dK](DOTA)-NH2; disulfide 3-11) | > 9.00
5 | CC(=O)N[C@@H](CCC(C)C)C(=O)N[C@@H](Cc1ccc(O)cc1)C(=O)N[C@H]1CSSC[C@@H](C(=O)N[C@@H](Cc2c[nH]c3ccc(F)cc23)C(=O)N[C@@H](Cc2ccccc2)C(=O)N[C@H](C(=O)N[C@H](CCCCNC(=O)CN2CCN(CC(=O)O)CCN(CC(=O)O)CCN(CC(=O)O)CC2)C(N)=O)[C@@H](C)O)NC(=O)[C@H](Cc2ccc(F)cc2)NC(=O)[C@H](C(C)C)NC(=O)[C@H](CC(=O)O)NC(=O)[C@H](Cc2ccc(O)cc2)NC(=O)[C@H](CCCCN)NC(=O)CNC(=O)[C@H](C(C)C)NC1=O [compound 172, Ac-hLeu-Y-C-V-G-K-Y-D-V-4FPhe-C-5FW-F-Thr-dLys(DOTA)-CONH2] (Ac-[hLeu]YCVGKYDV[Phe(4-F)]C[Trp(5-F)]FT[dK](DOTA)-NH2; disulfide 3-11) | 8.00 to 9.00
6 | CC(=O)N[C@@H](CCC(C)C)C(=O)N[C@@H](Cc1ccc(O)cc1)C(=O)N[C@H]1CSSC[C@@H](C(=O)N[C@@H](Cc2c[nH]c3ccc(F)cc23)C(=O)N[C@@H](Cc2cccc(F)c2)C(=O)N[C@H](C(=O)N[C@H](CCCCNC(=O)CN2CCN(CC(=O)O)CCN(CC(=O)O)CCN(CC(=O)O)CC2)C(N)=O)[C@@H](C)O)NC(=O)[C@H](Cc2ccc(O)cc2)NC(=O)[C@H](C(C)C)NC(=O)[C@H](CC(=O)O)NC(=O)[C@H](Cc2ccc(O)cc2)NC(=O)[C@H](CCCCN)NC(=O)CNC(=O)[C@H](C(C)C)NC1=O [compound 173, Ac-hLeu-Y-C-V-G-K-Y-D-V-Y-C-5FW-3FPhe-Thr-dLys(DOTA)-CONH2] (Ac-[hLeu]YCVGKYDVYC[Trp(5-F)][Phe(3-F)]T[dK](DOTA)-NH2; disulfide 3-11) | > 9.00
7 | CC(=O)N[C@@H](CCC(C)C)C(=O)N[C@@H](Cc1ccc(O)cc1)C(=O)N[C@H]1CSSC[C@@H](C(=O)N[C@@H](Cc2c[nH]c3ccc(F)cc23)C(=O)N[C@@H](Cc2ccccc2)C(=O)N[C@H](C(=O)N[C@H](CCCCNC(=O)CN2CCN(CC(=O)O)CCN(CC(=O)O)CCN(CC(=O)O)CC2)C(N)=O)[C@@H](C)O)NC(=O)[C@H](Cc2ccc(O)cc2)NC(=O)[C@H](C(C)C)NC(=O)[C@H](CC(=O)O)NC(=O)[C@H](Cc2ccc(O)cc2)NC(=O)[C@H](CCCCN)NC(=O)CNC(=O)[C@H](CC(C)(C)C)NC1=O [compound 174, Ac-hLeu-Y-C-tBuAla-G-K-Y-D-V-Y-C-5FW-F-Thr-dLys(DOTA)-CONH2] (Ac-[hLeu]YC[tBuAla]GKYDVYC[Trp(5-F)]FT[dK](DOTA)-NH2; disulfide 3-11) | 7.00 to 8.00
8 | CCCC[C@@H](C(=O)N[C@H](C(=O)N[C@H](CCCCNC(=O)CN1CCN(CC(=O)O)CCN(CC(=O)O)CCN(CC(=O)O)CC1)C(N)=O)[C@@H](C)O)N(C)C(=O)[C@H](Cc1c[nH]c2ccc(F)cc12)NC(=O)[C@@H]1CSSC[C@H](NC(=O)[C@H](Cc2ccc(O)cc2)NC(=O)[C@H](CCC(C)C)NC(C)=O)C(=O)N[C@@H](C(C)C)C(=O)NCC(=O)N[C@@H](CCCCN)C(=O)N[C@@H](Cc2ccc(O)cc2)C(=O)N[C@@H](CC(=O)O)C(=O)N[C@@H](C(C)C)C(=O)N[C@@H](Cc2ccc(O)cc2)C(=O)N1 [compound 176, Ac-hLeu-Y-C-V-G-K-Y-D-V-Y-C-5FW-NMeNle-Thr-dLys(DOTA)-CONH2] (Ac-[hLeu]YCVGKYDVYC[Trp(5-F)][NMeNle]T[dK](DOTA)-NH2; disulfide 3-11) | 8.00 to 9.00
9 | CC(=O)N[C@@H](CCC(C)C)C(=O)N[C@@H](Cc1ccc(O)cc1)C(=O)N[C@H]1CSSC[C@@H](C(=O)N[C@@H](Cc2c[nH]c3ccc(F)cc23)C(=O)N[C@@H](Cc2ccccc2)C(=O)N[C@H](C(=O)N[C@H](CCCCNC(=O)CN2CCN(CC(=O)O)CCN(CC(=O)O)CCN(CC(=O)O)CC2)C(N)=O)[C@@H](C)O)NC(=O)[C@H](Cc2ccc(O)cc2)NC(=O)[C@H](C(C)C)NC(=O)[C@H](CC(=O)O)NC(=O)[C@H]([C@H](C)O)NC(=O)[C@H](CCCCN)NC(=O)CNC(=O)[C@H](C(C)C)NC1=O [compound 178, Ac-hLeu-Y-C-V-G-K-alloThr-D-V-Y-C-5FW-F-Thr-dLys(DOTA)-CONH2] (Ac-[hLeu]YCVGK[aThr]DVYC[Trp(5-F)]FT[dK](DOTA)-NH2; disulfide 3-11) | 8.00 to 9.00
10 | CC(=O)N[C@@H](CCC(C)C)C(=O)N[C@@H](Cc1ccc(O)cc1)C(=O)N[C@H]1CSSC[C@@H](C(=O)N[C@@H](Cc2cccc3ccccc23)C(=O)N[C@@H](Cc2ccccc2)C(=O)N[C@H](C(=O)N[C@H](CCCCNC(=O)CN2CCN(CC(=O)O)CCN(CC(=O)O)CCN(CC(=O)O)CC2)C(N)=O)[C@@H](C)O)NC(=O)[C@H](Cc2ccc(O)cc2)NC(=O)[C@H](C2CCCCC2)NC(=O)[C@H](CC(=O)O)NC(=O)[C@H](Cc2ccc(O)cc2)NC(=O)[C@H](CCCCN)NC(=O)CNC(=O)[C@H](C(C)(C)C)NC1=O [compound 180, Ac-hLeu-Y-C-Tbg-G-K-Y-D-Chg-Y-C-1Nal-F-Thr-dLys(DOTA)-CONH2] (Ac-[hLeu]YC[Tle]GKYD[Chg]YC[1Nal]FT[dK](DOTA)-NH2; disulfide 3-11) | 8.00 to 9.00
11 | CC(=O)N[C@@H](CCC(C)C)C(=O)N[C@@H](Cc1ccc(O)cc1)C(=O)N[C@H]1CSSC[C@@H](C(=O)N[C@@H](Cc2c[nH]c3ccc(F)cc23)C(=O)N[C@@H](Cc2ccccc2)C(=O)N[C@H](C(=O)N[C@H](CCCCNC(=O)CN2CCN(CC(=O)O)CCN(CC(=O)O)CCN(CC(=O)O)CC2)C(N)=O)[C@@H](C)O)NC(=O)[C@H](Cc2ccc(O)cc2)NC(=O)[C@H](C2CCCCC2)NC(=O)[C@H](CC(=O)O)NC(=O)[C@H](Cc2ccc(O)cc2)NC(=O)[C@H](CCCCN)NC(=O)CNC(=O)[C@H](C(C)(C)C)NC1=O [compound 181, Ac-hLeu-Y-C-Tbg-G-K-Y-D-Chg-Y-C-5FW-F-Thr-dLys(DOTA)-CONH2] (Ac-[hLeu]YC[Tle]GKYD[Chg]YC[Trp(5-F)]FT[dK](DOTA)-NH2; disulfide 3-11) | 8.00 to 9.00
12 | CC(=O)N[C@@H](CCC(C)C)C(=O)N[C@@H](Cc1ccc(O)cc1)C(=O)N[C@H]1CSSC[C@@H](C(=O)N[C@@H](Cc2c[nH]c3ccc(F)cc23)C(=O)N[C@@H](Cc2ccccc2)C(=O)N[C@H](C(N)=O)[C@@H](C)O)NC(=O)[C@H](Cc2cccc(CNC(=O)CN3CCN(CC(=O)O)CCN(CC(=O)O)CCN(CC(=O)O)CC3)c2)NC(=O)[C@H](C(C)C)NC(=O)[C@H](CC(=O)O)NC(=O)[C@H](Cc2ccc(O)cc2)NC(=O)[C@H](CCCCN)NC(=O)CNC(=O)[C@H](C(C)C)NC1=O [compound 183, Ac-hLeu-Y-C-V-G-K-Y-D-V-MAF(DOTA)-C-5FW-F-Thr-CONH2] (Ac-[hLeu]YCVGKYDV[Phe(3-CH2NH2)](DOTA)C[Trp(5-F)]FT-NH2; disulfide 3-11) | 8.00 to 9.00
